# Measurements: PMC11742250, “Study on the absorption characteristics of euscaphic acid and tiliroside in fruits of Rosa laxa Retz” (PeerJ, 2025)
# Tests used:
# Format in all cases: in vitro ADME, human
# in vitro = details: human
# Protocol: (§1) A precise amount of FRLE reserve solution is diluted to concentrations of 50, 100, and 150 μg/mL, representing the low, medium, and high concentrations of FRLE. Additionally, solutions are prepared containing 0.100 μmoL/mL Verapamil (Ver), 0.099 μmoL/mL Cyclosporine A (CsA), and 0.025 μmoL/mL EGTA at low, medium, and high concentrations for bidirectional transport.
# (§2) Caco-2 cells are seeded at a density of 2.5 × 10^5 cells/mL, with 0.5 mL inoculated into each well of a Transwell® 12-well plate. After continuous culturing for 18 days, the cell model is established. Bidirectional transport experiments include AP→BL ([…], absorption transport) and BL→AP ([…], secretion transport).
# (§3) Taking absorption transport as an example: 0.5 mL of drug-containing Hank’s Balanced Salt Solution (HBSS) solution is added to the apical (AP) side (supply side), while 1.5 mL of blank solution is added to the basolateral (BL) side (receiving side). At time points 15, 30, 60, 90, 120, 150, and 180 min, 200 µL is drawn from the BL side and simultaneously supplemented with 200 µL of HBSS buffer. The samples are then evaporated in a water bath, re-dissolved in methanol, and centrifuged at 12,000 rpm for 10 min. The supernatant is taken and assayed under the conditions described in “Establishment of the determination method for euscaphic acid and tiliroside”. The effects of different times, concentrations, inhibitors, chelating agents, and pH values on the absorption characteristics of euscaphic acid and tiliroside in FRLE are investigated. The secretion transport procedure is identical to the absorption transport ([Artursson & Karlsson, 1991]).
# (§4) The side with the added blank solution is considered the receiving side, and the amount of drug in the receiving side is regarded as its absorption amount (Qr). In the A→B transport test, the amount of drug absorbed by the B-side chamber at any time point is denoted as (QrBi). In the B→A transport test, the amount of drug absorbed by the A-side chamber at any time point is (QrAi). The specific calculations are provided in the following formulas:
# (§5) A-B transport: QrBi = 0.2 × (Cr1 + Cr2 + Λ + Cr(i-1)) + 1.5 × Cri
# (§6) B-A transport: Qrdi = 0.2 × (Cr1 + Cr2 + Λ + Cr(i-1)) + 0.5 × Cdi
# (§7) In the formula, 1.5 represents the volume of the test solution added to the B-side chamber (mL), 0.5 represents the volume of the test solution added to the A-side chamber (mL), and 0.2 is the volume of each sample taken (mL). Cri is the actual concentration in the receiving chamber at the i-th time point (μg/mL). The apparent permeability coefficient Papp (cm/s) is calculated using the following formula ([Lu et al., 2020]):
# (§8) Papp=dQ/dt×1/A×C0 dQ/dt represents the amount of drug transported per unit of time (μg/s); A is the surface area of the 12-well Transwell® membrane (1.12 cm^2), and C0 is the initial concentration of the drug in the donor side ([…]) ([Qu et al., 2021]).
# (§9) Exhaust ratio (RB-A/A-B)) is calculated using the following formula: RB−A/A−B=Papp(B−A)/Papp(A−B)
# Caco-2 cells [1] = test: in vitro
# Protocol: as §1, §2, §3, §4, §5, §6, §7, §8, §9
# P-gp = test: in vitro; details: human
# Protocol: as §1, §2, §3, §4, §5, §6, §7, §8, §9
# Caco-2 cells [2] = test: Evaluation of the Caco-2 cell model with fluorescein sodium as marker (Papp, monolayer integrity); details: Caco-2 monolayer, four repeated measurements
# Protocol: The evaluation of the Caco-2 cell model primarily involves using fluorescein sodium as a marker. The cells are seeded in a 12-well cell plate (10^5 cells/well) and observed and photographed every two days under a fluorescence inverted microscope. The transepithelial electrical resistance (TEER) is measured using a resistance meter (Millipore Millicell ERS-2; Millipore Sigma, Darmstadt, Germany). […] Markers used for detection mainly include mannitol, inulin, and fluorescein sodium.
# [3] = Caco-2, Papp × 10^−4 (cm/s) (A→B)
# [4] = Caco-2, Papp × 10^−4 (cm/s) (B→A)
# [5] = Caco-2, pH 5, Papp × 10^−4 (cm/s) (A→B)
# [6] = Caco-2, pH 5, Papp × 10^−4 (cm/s) (B→A)
# [7] = Caco-2, pH 6, Papp × 10^−4 (cm/s) (A→B)
# [8] = Caco-2, pH 6, Papp × 10^−4 (cm/s) (B→A)
# [9] = Caco-2, pH 8, Papp × 10^−4 (cm/s) (A→B)
# [10] = Caco-2, pH 8, Papp × 10^−4 (cm/s) (B→A)
# [11] = Caco-2, pH 9, Papp × 10^−4 (cm/s) (A→B)
# [12] = Caco-2, pH 9, Papp × 10^−4 (cm/s) (B→A)
structure (smiles),measurement,setting,value
O=C(/C=C/c1ccc(O)cc1)OC[C@H]1O[C@@H](Oc2c(-c3ccc(O)cc3)oc3cc(O)cc(O)c3c2=O)[C@H](O)[C@@H](O)[C@@H]1O [Tiliroside],Papp at 180 min,in vitro; Caco-2,0.042 to 0.808 ×10⁻⁶ cm/s
same,"Papp A→B at 180 min, 50 μg/mL",in vitro; [3],137 ± 2 ×10⁻⁶ cm/s
same,"Papp A→B at 180 min, 100 μg/mL",in vitro; [3],176 ± 13 ×10⁻⁶ cm/s
same,"Papp A→B at 180 min, 150 μg/mL",in vitro; [3],268 ± 9 ×10⁻⁶ cm/s
same,"Papp B→A at 180 min, 50 μg/mL",in vitro; [4],129 ± 2 ×10⁻⁶ cm/s
same,"Papp B→A at 180 min, 100 μg/mL",in vitro; [4],210 ± 4 ×10⁻⁶ cm/s
same,"Papp B→A at 180 min, 150 μg/mL",in vitro; [4],283 ± 3 ×10⁻⁶ cm/s
same,"efflux ratio at 180 min, 50 μg/mL","in vitro; Caco-2, RB→A/A→B",0.82 ± 0.04
same,"efflux ratio at 180 min, 100 μg/mL","in vitro; Caco-2, RB→A/A→B",0.75 ± 0.07
same,efflux ratio at 180 min,"in vitro; Caco-2, efflux ratio (RB→A/A→B)",< 1.5
same,"Papp A→B at 180 min, 50 μg/mL",in vitro; [5],380 ± 9 ×10⁻⁶ cm/s
same,"Papp A→B at 180 min, 100 μg/mL",in vitro; [5],409 ± 7 ×10⁻⁶ cm/s
same,"Papp A→B at 180 min, 150 μg/mL",in vitro; [5],649 ± 8 ×10⁻⁶ cm/s
same,"Papp B→A at 180 min, 50 μg/mL",in vitro; [6],448 ± 8 ×10⁻⁶ cm/s
same,"Papp B→A at 180 min, 100 μg/mL",in vitro; [6],536 ± 14 ×10⁻⁶ cm/s
same,"Papp B→A at 180 min, 150 μg/mL",in vitro; [6],718 ± 24 ×10⁻⁶ cm/s
same,"efflux ratio at 180 min, 50 μg/mL","in vitro; Caco-2, pH 5, RB→A/A→B",1.18 ± 0.01
same,"efflux ratio at 180 min, 100 μg/mL","in vitro; Caco-2, pH 5, RB→A/A→B",1.31 ± 0.02
same,"efflux ratio at 180 min, 150 μg/mL","in vitro; Caco-2, pH 5, RB→A/A→B",1.11 ± 0.05
same,"Papp A→B at 180 min, 50 μg/mL",in vitro; [7],473 ± 24 ×10⁻⁶ cm/s
same,"Papp A→B at 180 min, 100 μg/mL",in vitro; [7],468 ± 14 ×10⁻⁶ cm/s
same,"Papp A→B at 180 min, 150 μg/mL",in vitro; [7],618 ± 28 ×10⁻⁶ cm/s
same,"Papp B→A at 180 min, 50 μg/mL",in vitro; [8],568 ± 24 ×10⁻⁶ cm/s
same,"Papp B→A at 180 min, 100 μg/mL",in vitro; [8],614 ± 8 ×10⁻⁶ cm/s
same,"Papp B→A at 180 min, 150 μg/mL",in vitro; [8],808 ± 15 ×10⁻⁶ cm/s
same,"efflux ratio at 180 min, 50 μg/mL","in vitro; Caco-2, pH 6, RB→A/A→B",1.2 ± 0.11
same,efflux ratio at 180 min,"in vitro; Caco-2, pH 6, RB→A/A→B value",~1
same,"Papp A→B at 180 min, 50 μg/mL",in vitro; [9],86 ± 12 ×10⁻⁶ cm/s
same,"Papp A→B at 180 min, 100 μg/mL",in vitro; [9],92 ± 17 ×10⁻⁶ cm/s
same,"Papp A→B at 180 min, 150 μg/mL",in vitro; [9],96 ± 14 ×10⁻⁶ cm/s
same,"Papp B→A at 180 min, 50 μg/mL",in vitro; [10],83 ± 600 ×10⁻⁶ cm/s
same,"Papp B→A at 180 min, 100 μg/mL",in vitro; [10],88 ± 11 ×10⁻⁶ cm/s
same,"Papp B→A at 180 min, 150 μg/mL",in vitro; [10],93 ± 18 ×10⁻⁶ cm/s
same,"efflux ratio at 180 min, 50 μg/mL","in vitro; Caco-2, pH 8, RB→A/A→B",1.03 ± 0.01
same,"efflux ratio at 180 min, 100 μg/mL","in vitro; Caco-2, pH 8, RB→A/A→B",1.04 ± 0.03
same,"Papp A→B at 180 min, 50 μg/mL",in vitro; [11],45 ± 4 ×10⁻⁶ cm/s
same,"Papp A→B at 180 min, 100 μg/mL",in vitro; [11],56 ± 24 ×10⁻⁶ cm/s
same,"Papp A→B at 180 min, 150 μg/mL",in vitro; [11],66 ± 26 ×10⁻⁶ cm/s
same,"Papp B→A at 180 min, 50 μg/mL",in vitro; [12],42 ± 15 ×10⁻⁶ cm/s
same,"Papp B→A at 180 min, 100 μg/mL",in vitro; [12],54 ± 18 ×10⁻⁶ cm/s
same,"Papp B→A at 180 min, 150 μg/mL",in vitro; [12],62 ± 21 ×10⁻⁶ cm/s
same,"efflux ratio at 180 min, 50 μg/mL","in vitro; Caco-2, pH 9, RB→A/A→B",1.07 ± 0.06
same,P-gp substrate status,Caco-2 cells [1]; Caco-2,substrates of P-gp
same,absorption category from Papp,Caco-2 cells [1]; Caco-2,good absorption
same,transport mechanism,Caco-2 cells [1]; Caco-2,passive diffusion
same,Papp,"Caco-2 cells [1]; human, Caco-2, 180 min",greater than 10^−6
same,"RB→A/A→B ratios, range over all conditions","Caco-2 cells [1]; human, Caco-2, 180 min",0.75-1.31
same,RB→A/A→B,"Caco-2 cells [1]; human, Caco-2, 180 min, 100 μg/mL, pH 6",1.31 ± 0.05
same,RB→A/A→B,"Caco-2 cells [1]; human, Caco-2, 180 min, 100 μg/mL, pH 9",1.03 ± 0.04
same,RB→A/A→B,"Caco-2 cells [1]; human, Caco-2, 180 min, 150 μg/mL, pH 6",1.21 ± 0.15
same,RB→A/A→B,"Caco-2 cells [1]; human, Caco-2, 180 min, 150 μg/mL, pH 8",1.03 ± 0.05
same,RB→A/A→B,"Caco-2 cells [1]; human, Caco-2, 180 min, 150 μg/mL, pH 9",1.06 ± 0.05
same,"Papp A→B at 180 min, 50 μg/mL",P-gp; [3],142 ± 2 ×10⁻⁶ cm/s
same,"Papp A→B at 180 min, 100 μg/mL",P-gp; [3],180 ± 5 ×10⁻⁶ cm/s
same,"Papp A→B at 180 min, 150 μg/mL",P-gp; [3],261 ± 6 ×10⁻⁶ cm/s
same,"Papp B→A at 180 min, 50 μg/mL",P-gp; [4],156 ± 3 ×10⁻⁶ cm/s
same,"Papp B→A at 180 min, 100 μg/mL",P-gp; [4],226 ± 9 ×10⁻⁶ cm/s
same,"Papp B→A at 180 min, 150 μg/mL",P-gp; [4],276 ± 1 ×10⁻⁶ cm/s
same,"efflux ratio at 180 min, 50 μg/mL","P-gp; Caco-2, RB→A/A→B",1.09 ± 0.03
same,"efflux ratio at 180 min, 100 μg/mL","P-gp; Caco-2, RB→A/A→B",1.25 ± 0.06
same,"efflux ratio at 180 min, 150 μg/mL","P-gp; Caco-2, RB→A/A→B",0.96 ± 0.02
"O=C([O-])c1ccccc1-c1c2ccc(=O)cc-2oc2cc([O-])ccc12.[Na+].[Na+] [fluorescein sodium, Fluorescein sodium]",Papp of fluorescein sodium,Caco-2 cells [2],4.06 ± 0.17 × 10^−7 cm/s
